The values that follow come from patent US20050026833A1, “PSP-94: use for treatment of hypercalcemia and bone metastasis” (priority 2001, published 2005).

One assay relates to Mat Ly Lu-PTHrP cells. Kind of assay: Cell morphology of treated Mat Ly Lu-PTHrP cells. It counts as cell-based, rat. The method, then:
Cell morphology. Morphological analysis of control and experimental Mat Ly Lu-PTHrP cells treated with PSP-94 or PCK3145 was carried out by plating 5×10^4 cells/ well in 6-well plates (Falcon Plastics, Oxnard, Calif.) in the presence of 10% FBS.
Mat Ly Lu cells transfected with vector alone (CMV) or vector expressing PTHrP were seeded at a density of 5×10^3 cells/well in 6-well plates. Mat Ly Lu-PTHrP cells were treated with PSP-94 and were trypsinized and counted using a coulter counter as described herein. Change in cell number following treatment with 10.0 ug/ml of PSP-94 for 72 hrs is illustrated in FIG. 1.
Mat Ly Lu-PTHrP cells were seeded at a density of 5×10^3 cells/well in 6-well plates and treated with different doses (1.0-100.0 ug/ml) of PCK3145 for up to 5 days and were trypsinized and counted using a coulter counter as described herein.

A further assay relates to PTHrP. Kind of assay: Tumoral PTHrP production by immunohistochemistry of primary tumors. It counts as in vivo, male Copenhagen rats. The method, then: Histologic Analysis. For immunohistological analysis, primary tumor samples were dewaxed by heating at 60° C. and rehydrated in a graded alcohol series (100%-70%). Anti-rat antibody against PTHrP was used as the primary antibody. Tumor sections were incubated overnight at 4° C. followed by further incubation with biotinylated universal antibody (Vector Laboratories, Burlingame, Calif.) for 45-60 minutes. Sections were rinsed with TBST (Tris buffered saline-Tween) followed by incubation with Vectastain ABC-AP Reagent (Vector Laboratories, Burlingame, Calif.) for 30 minutes. These sections were again washed with TBST and incubated with a Napthol AS-Mix Phosphate/Fast Red solution (Sigma-Aldriche, Oakville, ON). The sections were finally counterstained with Methyl Green (Vector Laboratories, Burlingame, Calif.) and mounted.
Alternatively, paraffin embedded tumor samples were cut into 5 um-thick sections for immunohistochemical analysis. […]
Tumors from control group treated with vehicle alone and experimental groups treated with different doses of PSP-94 (0.1-10.0 μg/kg/day) were excised, paraffin embedded, and sectioned and analyzed for tumoral PTHrP production by immunohistochemical reaction specific for PTHrP using method described herein. […] Three animals were present in each group and three tumor sections were analyzed for each animal by evaluating at least ten random fields of observation.
Primary tumors from control vehicle treated animals and animals treated with the highest dose of PCK3145 (100.0 ug/kg/day) were removed, paraffin embedded, and sectioned. […] Therefore, tumors from control group treated with vehicle alone and experimental group treated with the highest dose of PCK3145 (100.0 ug/kg/day) were excised and analyzed for tumoral PTHrP production by immunohistochemical analysis. […] No reaction was seen when these tumors were evaluated for background reaction in the absence of PTHrP antibody (NC).

Another assay concerns Mat Ly Lu-PTHrP tumors. Kind of assay: TUNEL assay and Hoechst counterstaining of primary tumor sections. It counts as in vivo, male Copenhagen rats. The note with it: vs vehicle; for TUNEL staining of tumor sections: fifteen days. The method, then:
For TUNEL assay, tissue sections were, for example, dewaxed (e.g., in xylene), (may also be rehydrated by heating at 60° C. followed by washing in xylene) and (further) rehydrated through a graded alcohol series (100%-70%). Tissues were incubated with proteinase K for 30 min at 37° C. fixed, blocked and permeabilized. Apoptotic cells were detected by TUNEL assay in situ cell death detection kit (Roche Molecular Biochemicals, Laval, QC) according to the manufacturer's instruction. Positive TUNEL staining was visualised by fluorescence microscopy. In other experiments following TUNEL assay, tissue sections were counterstained with Hoechst 33258 (Sigma-Aldrich, Canada). Hoechst staining was added to tissues at a final concentration of 24 ug/ml in PBS and incubated for 15 minutes at room temperature. Tissue sections were washed and visualized by fluorescence microscopy using a blue screen (Rabbani, S. A., et al., Int. J.Cancer, 87:276-282, 2000). All results of immunohistochemistry and TUNEL assay were evaluated and interpreted by two independent examiners.
The degree of DNA fragmentation was also analyzed in vivo using TUNEL assay which can serve as a marker for apoptosis. […] All animals were sacrificed at the end of the study and their primary tumors removed, paraffin embedded, sectioned and processed by TUNEL assay (upper panel of FIG. 14B) as described herein. Following TUNEL assay, they were counterstained with Hoescht reagent (lower panel of FIG. 14B).
In order to investigate an underlying molecular mechanism of action of PCK3145 in reducing tumor growth, Mat Ly Lu-PTHrP tumors were analyzed using TUNEL assay which can serve as a marker for apoptosis. […] All animals were sacrificed at the end of the study and their primary tumors removed, paraffin embedded, sectioned and processed by TUNEL assay (upper panel) and counterstained with Hoescht reagent (lower panel). Five animals were present in each group and three sections were analyzed for each animal.

“Also recorded” adds a separate entry of the source.

As for “E W Q T D N C E T C T C Y E T (EWQTDNCETCTCYET; PCK3145 (polypeptide 31-45))”, the cell morphology entry with Mat Ly Lu-PTHrP cells (100.0 ug/ml PCK3145 (data not shown)) is “changed their morphology from a more spindle-like appearance to a more circular and condensed shape”. The “tumoral PTHrP production (PTHrP immuno-staining)” value in the assay on PTHrP (100.0 ug/kg PCK3145, relative to lower doses) was “most pronounced”; with PTHrP (different doses of PCK3145 (data not shown), vs vehicle), “dose dependent decrease”. Moreover, in the assay on Mat Ly Lu-PTHrP tumors (Example 9, PCK3145 study), the “Hoechst counterstaining of tumor sections” value is recorded as “presence of apoptotic bodies”. The “TUNEL staining of tumor sections” value with Mat Ly Lu-PTHrP tumors (PCK3145 100.0 ug/kg/day) was “significantly more TUNEL positive”.

B1: PSP-94: prostate secretory protein of 94 amino acids; native human seminal plasma PSP-94 (protein)
chain: SCYFIPNEGVPGDSTRKCMDLKGNKHPINSEWQTDNCETCTCYETEISCCTLVSTPVGYDKDNCQRIFKKEDCKYIVVEKKDPKKTCSVSEWII
B1: in the assay on Mat Ly Lu-PTHrP cells (10.0 ug/ml PSP-94 for 3 days (data not shown)), the tumor cell morphology result is “noticeable change in tumor cell morphology”. Besides, the “tumoral PTHrP production (PTHrP immunostaining)” value with PTHrP (PSP-94 0.1-10.0 ug/kg/day, vs vehicle) was “same dose-dependent decrease”. In addition, the “Hoechst counterstaining of tumor sections” value in the assay with Mat Ly Lu-PTHrP tumors (Example 9, PCK3145 study) is given as “condensed chromatin”; with Mat Ly Lu-PTHrP tumors (PSP-94 treated animals), “presence of apoptotic bodies; also recorded: condensed chromatin”. Also, the “TUNEL staining of tumor sections” value in the assay on Mat Ly Lu-PTHrP tumors (PSP-94 10.0 ug/kg/day) is “significantly more TUNEL positive”.
